We go through 22 compounds from ChEMBL document CHEMBL1144533, “Synthesis and evaluation of 2-{[2-(4-hydroxyphenyl)-ethyl]amino}pyrimidine-5-carboxamide derivatives as novel STAT6 inhibitors” (Bioorg Med Chem, 2007).

pIC50: −log10 of the molar value. Active and inactive are the calls of the source. No cut-off for these calls is given here.

For the first experiment, the system named is T-cell. Briefly: Effect on differentiation of C57BL/6 mouse T cells assessed as inhibition of IL4 production. The class given is functional, cell-based. The following applies: C57BL/6, T-cell.
Usually pIC50 stands for the IC50 on a negative log10 scale, so that one unit is a factor of ten. In the case of `Cc1cccc(Nc2nc(NCCc3ccc(O)cc3)ncc2C(N)=O)c1`, the pIC50 was 7.85. For `NC(=O)c1cnc(NCCc2ccc(O)c(Cl)c2)nc1NCc1ccccc1`, the negative logarithm of the IC50 (pIC50) is 8.64.

The next experiment concerns the target T1, Signal transducer and activator of transcription 6 (Homo sapiens, UniProt P42226).
T1 sequence (P42226 whole entry): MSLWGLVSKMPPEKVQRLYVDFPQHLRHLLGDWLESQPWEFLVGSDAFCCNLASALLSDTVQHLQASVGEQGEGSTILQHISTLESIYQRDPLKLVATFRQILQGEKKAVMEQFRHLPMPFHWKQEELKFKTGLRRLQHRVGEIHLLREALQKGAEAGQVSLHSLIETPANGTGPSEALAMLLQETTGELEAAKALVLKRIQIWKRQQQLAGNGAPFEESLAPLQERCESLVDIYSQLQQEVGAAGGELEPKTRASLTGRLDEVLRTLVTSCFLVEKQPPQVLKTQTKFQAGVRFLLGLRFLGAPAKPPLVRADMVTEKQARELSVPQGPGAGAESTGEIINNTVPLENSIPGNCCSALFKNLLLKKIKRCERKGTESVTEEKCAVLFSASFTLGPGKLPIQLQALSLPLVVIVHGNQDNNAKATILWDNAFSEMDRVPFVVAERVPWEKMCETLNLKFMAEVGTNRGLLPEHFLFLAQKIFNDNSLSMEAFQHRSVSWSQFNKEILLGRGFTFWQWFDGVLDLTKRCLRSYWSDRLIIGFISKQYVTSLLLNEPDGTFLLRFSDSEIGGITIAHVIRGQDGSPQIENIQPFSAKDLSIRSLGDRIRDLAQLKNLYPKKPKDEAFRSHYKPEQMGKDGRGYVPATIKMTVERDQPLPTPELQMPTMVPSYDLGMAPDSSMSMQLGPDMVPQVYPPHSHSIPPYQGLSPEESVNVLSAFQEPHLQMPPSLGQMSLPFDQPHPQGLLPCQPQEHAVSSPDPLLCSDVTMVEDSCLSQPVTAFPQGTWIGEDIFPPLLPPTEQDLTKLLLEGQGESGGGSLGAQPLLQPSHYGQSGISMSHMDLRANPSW
The experiment is described as follows: Inhibition of STAT6 in human IL4-stimulated FW4 cells.
Settings: not given
With `CCNC(=O)c1cnc(NCCc2ccc(O)cc2)nc1Nc1cccc(C)c1`, the negative-log IC50 (pIC50) was 6.42. Turning to `CNC(=O)c1cnc(NCCc2ccc(O)c(Cl)c2)nc1NCc1ccccc1`, the pIC50 was 7.52. In turn, `Cc1cccc(Nc2nc(NCCc3ccc(O)cc3)ncc2C(=O)N(C)C)c1` gave a pIC50 of 5.09. `Cc1cccc(Nc2nc(NCCc3ccc(O)cc3)ncc2C(=O)NC(C)C)c1` gave a pIC50 of 5.96. For `Cc1cccc(Nc2nc(NCCc3ccc(O)c(F)c3)ncc2C(N)=O)c1`, the pIC50 was 7.19. As for `NC(=O)c1cnc(NCCc2ccc(O)cc2)nc1NCc1ccccc1`, the negative-log IC50 (pIC50) was 7.06. In the case of `CNC(=O)c1cnc(NCCc2ccc(O)cc2)nc1Nc1cccc(C)c1`, the pIC50 was 6.77. Compound `Cc1cccc(Nc2nc(NCCc3ccc(O)cc3)ncc2C(N)=O)c1` gave a pIC50 of 6.72. The same measure, in the same setting: the value for `NC(=O)c1cnc(NCCc2ccc(O)c(Cl)c2)nc1NCc1ccccc1` was 7.68.

`Cc1cccc(Nc2nc(NCCc3ccc(O)c(C)c3)ncc2C(N)=O)c1` had a negative logarithm of the IC50 (pIC50) of 6.89. In turn, `Cc1cccc(Nc2nc(NCCc3cccc(O)c3)ncc2C(N)=O)c1` gave a negative logarithm of the IC50 (pIC50) of 5.52.

Compound `NC(=O)c1cnc(NCCc2ccc(O)cc2)nc1NC1CCCCC1` had a pIC50 of 7.00. For the compound `Cc1cccc(Nc2nc(NCCc3ccc(O)c(Cl)c3)ncc2C(N)=O)c1`, the pIC50 is 7.35. As to `Cc1cccc(Nc2nc(NCCc3ccc(O)c(Br)c3)ncc2C(N)=O)c1`, the negative logarithm of the IC50 (pIC50) is 7.08. In turn, `COc1cc(CCNc2ncc(C(N)=O)c(Nc3cccc(C)c3)n2)ccc1O` gave a negative logarithm of the IC50 (pIC50) of 6.18. In turn, `NC(=O)c1cnc(NCCc2ccc(O)cc2)nc1Nc1ccccc1` showed a negative-log IC50 (pIC50) of 6.39.

The target in a further experiment is T2, Signal transducer and activator of transcription 6 (Homo sapiens) (UniProt P42226).
T2 sequence (whole entry): T1 sequence (P42226 whole entry)
Briefly: Inhibition of STAT6 in human IL4-stimulated FW4 cells at 10 uM.
Settings: not given
Usually inhibition stands for the percentage by which the read-out fell short of the control. In the case of `Cc1cccc(Nc2nc(NCCc3ccccc3)ncc2C(N)=O)c1`, the inhibition worked out at 16%. Still for that read-out and setting: the value for `Cc1cccc(Nc2nc(CCCc3ccc(O)cc3)ncc2C(N)=O)c1` was 32%; that for `COc1ccc(CCNc2ncc(C(N)=O)c(Nc3cccc(C)c3)n2)cc1` was 49%.

As for `Cc1cccc(Nc2nc(NCCCc3ccc(O)cc3)ncc2C(N)=O)c1`, the inhibition stood at 23%.

Compound `Cc1cccc(Nc2nc(NCCc3ccccc3O)ncc2C(N)=O)c1` showed an inhibition of 15%. Same read-out and setting: under `Cc1cccc(Nc2nc(NCc3ccc(O)cc3)ncc2C(N)=O)c1` stands 19%.

The subject of another experiment is T-cell. Briefly: Effect on differentiation of C57BL/6 mouse T cells assessed as inhibition of IL12-induced TFN-gamma production.
Settings: not given
The class given is functional, cell-based.
`Cc1cccc(Nc2nc(NCCc3ccc(O)cc3)ncc2C(N)=O)c1`: the outcome was inactive. On the same count and under the same terms, the value for `NC(=O)c1cnc(NCCc2ccc(O)c(Cl)c2)nc1NCc1ccccc1` was “inactive”.
